Assay [1] has as its target T1, human microsomal 11β-HSD1 (Homo sapiens, UniProt P28845). Briefly: Inhibition of cortisone reduction (11β-HSD1 reductase activity) in human liver microsomes, cortisol quantified by HPLC. The settings on record: for IC50: IC50, inhibition of cortisone reduction. (In general: Liver microsomes are a subcellular fraction often used to study metabolism.)
Method: (§1) In terms of 11β-HSD1 reductase activity, inhibition analysis was performed as follows: 50 µl of tea extract were added to a mixture containing 400 µM cortisone, 0.8 mM NADPH solution in 100 mM phosphate buffer pH 7.4. […] The total assay volume was 250 µl.
(§2) The reaction was stopped by adding 250 µl ice-cold ethylacetate and vortexing, followed by a 30 sec centrifugation at 13,000 RPM in a microcentrifuge. The organic phase was separated and the aqueous phase extracted two more times with 250 µl ethylacetate. The ethylacetate phases were combined and the solvent was removed in a SpeedVac (ThermoSavant). The resulting residue was dissolved in 150 µl methanol-water (58∶42, v/v) and used for metabolite quantification by HPLC.
(§3) Product yield was quantified by peak integration of the cortisone and cortisol peaks, respectively.
(§4) The data obtained were plotted as substrate-velocity curves and analyzed by nonlinear-regression.
Assay [2] deals with T2, 11β-HSD1 in human liver microsomes (Homo sapiens, UniProt P28845).
T2 construct: The reaction was started by adding 5 µl of human liver microsomes (218 µg protein); from tissue; host or cells: human liver (microsomal fraction)
Briefly: Inhibition of cortisol oxidation (11β-HSD1 dehydrogenase activity) in human liver microsomes, HPLC. It is filed as biochemical. Particulars: pH 9.0, NADP. How it is done: Here, the incubation time was 60 min at 37°C in a 100 mM phosphate buffer pH 9.0.

Assay [3] addresses T3, purified 11β-HSD1 (Homo sapiens, UniProt P28845).
T3 construct: from tissue; host or cells: human liver
As to the kind of experiment: Inhibition of cortisone reduction by purified human 11β-HSD1. It is filed as biochemical. The method, then:
The total assay volume was 250 µl.

Assay [4] concerns the target T3, purified 11β-HSD1. As to the kind of experiment: Western Blot analysis for EGCG-induced 11β-HSD1 aggregate formation. The settings on record: preincubation 3 h at 37°C, up to 100 µM. The method, then: To exclude EGCG-induced 11β-HSD1 aggregate formation, purified 11β-HSD1 (2.14 µg) was preincubated with 25–100 µM EGCG (3 h at 37°C) and then prepared for sodium dodecyl sulfate polyacrylamide gel electrophoresis (SDS-PAGE) according to the manufacturer's protocol. As a control, the same volume of untreated purified protein was loaded onto the parallel lane.
The resolved proteins were transferred to nitrocellulose membranes. After blocking the membrane for 1 h at RT with 5% non-fat dry milkpowder in PBS-buffer, the blocking solution was replaced by the primary antibody at a 1∶2,000 dilution and the membrane was incubated at 4°C for about 16 h. Primary and secondary antibodies were diluted in PBS containing 2.5% non-fat dry milkpowder. The membrane was washed three times and then the corresponding secondary antibody was added at a dilution of 1∶10,000. After a 1.5 h incubation at RT the membrane was washed three times and the specific Western blot signals of 11β-HSD1 were detected by the ECL Western Blotting System according to the manufacturer's instructions.
Background: Immunoblotting shows a protein as a band on a membrane.

Assay [5] concerns the target T1, human microsomal 11β-HSD1. As to the kind of experiment: biochemical.
Method: as §1, §2, §3, §4
The mark [6] stands for this setting: read-out: inhibition of cortisone reduction.

As a reminder, the inhibition is the change of the read-out against control, counted positive when it falls. A word on the IC50: it is the point on the concentration scale where inhibition reaches its midpoint. Lower therefore signals inhibition by little substance. The Ki is a dissociation constant, usually derived from enzyme kinetics or from competition with a known ligand.

Several values for one entry are separate records, joined by “and”; a condition that tells them apart may be missing. Identical values can stand only once. Entries after “also recorded” stand apart in the source; their conditions may differ. Like-named read-outs stand apart in the source and are kept apart here.

T1 sequence (P28845 whole entry): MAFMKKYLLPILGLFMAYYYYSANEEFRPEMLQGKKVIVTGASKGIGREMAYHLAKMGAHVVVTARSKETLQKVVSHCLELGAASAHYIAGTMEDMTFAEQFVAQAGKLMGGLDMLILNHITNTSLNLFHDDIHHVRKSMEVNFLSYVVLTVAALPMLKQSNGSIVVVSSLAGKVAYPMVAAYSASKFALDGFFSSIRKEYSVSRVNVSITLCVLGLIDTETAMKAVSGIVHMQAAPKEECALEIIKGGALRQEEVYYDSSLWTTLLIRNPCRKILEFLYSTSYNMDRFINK
T3 sequence (P28845 whole entry): as above
T2 sequence (P28845 whole entry): as above

For `Oc1cc(O)c2c(c1)O[C@H](c1cc(O)c(O)c(O)c1)[C@H](O)C2` [EGC, (−)-epigallocatechin], in assay [1] (setting [6]), the inhibition at 200 µM is around 25%.
`O=C(O[C@@H]1Cc2c(O)cc(O)cc2O[C@@H]1c1cc(O)c(O)c(O)c1)c1cc(O)c(O)c(O)c1` [EGCG, (−)-epigallocatechin-3-gallate]: the IC50 came to 131 µM in assay [2]; 58 µM in assay [1] (human liver microsomes, freshly prepared solution); 26.9 µM in assay [1] (stored solution, human liver microsomes, aqueous solution stored at −20°C for one week). Moreover, the type of inhibition result is “mixed inhibition; also recorded: mixed mode” in assay [3] (purified 11β-HSD1, with respect to cortisone) and “mixed inhibition” in assay [1] (human liver microsomes, with respect to cortisone). Further, the Ki in assay [3] (purified human 11β-HSD1, read-out: Ki (estimated by Dixon-plot) on cortisone reduction) is 20.9 µM; in assay [3] (purified human 11β-HSD1, read-out: Ki (non-linear regression) on cortisone reduction), 18.7 µM; in assay [5], 22.7 µM and 17.8 µM. In addition, in assay [4], the protein aggregate formation result is reported as “did not induce protein aggregate formation”. The inhibition at 100 µM in assay [1] (setting [6]) is around 75%.
Consider `Oc1cc(O)c2c(c1)O[C@@H](c1cc(O)c(O)c(O)c1)[C@H](O)C2` [GC, (−)-gallocatechin], for which, in assay [1] (setting [6]), the inhibition at 100 µM is around 53%.
Regarding `OO` [hydrogen peroxide, reference compound], the “influence on cortisol production” value in assay [3] (up to 300 µM, purified human 11β-HSD1) is “No 11β-HSD1 inhibition”; in assay [1] (up to 300 µM, human liver microsomes), “No 11β-HSD1 inhibition”.

(Values after publication PMC3880318, “Green Tea and One of Its Constituents, Epigallocatechine-3-gallate, Are Potent Inhibitors of Human 11β-hydroxysteroid Dehydrogenase Type 1” (PLoS ONE, 2014).)
